Experimental data as given in ChEMBL document CHEMBL1201862, “PubChem BioAssay data set” (2004).
Activity calls are given as the source filed them.

Legend:
[1] = biological target: T1, Probable nicotinate-nucleotide adenylyltransferase (Staphylococcus aureus (strain N315), UniProt P65502); assay type: functional, Staphylococcus aureus subsp. aureus N315; conditions: read-out: IC50_Mean;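 on IC50 Mean: confirmatory dose-response retesting of NadD inhibitor hits first found in an ultra-high-throughput screen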
[2] = biological target: T1, Probable nicotinate-nucleotide adenylyltransferase; assay type: functional, Staphylococcus aureus subsp. aureus N315
DNA topoisomerase = DNA topoisomerase (Yersinia pestis, UniProt A0A2S9PM60); test: Y. pestis Topo-I inhibitors, cleavage product readout, dose response, biochemical, cherry-pick (AID 588525)
[3] = biological target: E3 ubiquitin-protein ligase Mdm2 (Homo sapiens, UniProt Q00987); test: enhancers of MDM2-luciferase reporter signal, concentration-effect titration, project on inhibitors of MDM2 ubiquitin ligase, cellular assay, luminescent readout, 384-well plate format (AID 1394); assay type: functional;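 further: MDM2 E3 inhibitors raise luminescence so EC50 is for signal enhancement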
Nonstructural protein 1 = Nonstructural protein 1 (Influenza A virus, UniProt Q194T2); assay type: functional, Influenza A virus (A/California/07/2009(H1N1))
[4] = biological target: Eukaryotic translation initiation factor 4E (Mus musculus, UniProt P63073); test: eIF4E–eIF4G protein interaction inhibitors, dose response, biochemical, TR-FRET (AID 855); assay type: functional;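 further: potency for disrupting eIF4E binding to eIF4GI seen as loss of FRET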
Beta-arrestin-1 = Beta-arrestin-1 (Homo sapiens, UniProt P49407); test: inhibitors of arrestin peptide binding to AP2, dose response, biochemical, cherry pick 1, beta2-adaptin appendage, flow cytometry (AID 588783); assay type: functional
[5] = growth suppression of beta-catenin-knockout colon cells, dose response, cell-based, HCT116, human colon tumor (AID 1045); assay type: functional;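 further: HCT116 colon tumor cells with beta catenin knocked out; cells exposed to compound for 60 hours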
[6] = biological target: T2, Replicative DNA helicase DnaB (Mycobacterium tuberculosis, UniProt P9WMR3); test: DnaB intein splicing inhibitors, dose response, biochemical, cell-free fluorescence (AID 449749); assay type: functional
T2 sequence (P9WMR3 whole entry): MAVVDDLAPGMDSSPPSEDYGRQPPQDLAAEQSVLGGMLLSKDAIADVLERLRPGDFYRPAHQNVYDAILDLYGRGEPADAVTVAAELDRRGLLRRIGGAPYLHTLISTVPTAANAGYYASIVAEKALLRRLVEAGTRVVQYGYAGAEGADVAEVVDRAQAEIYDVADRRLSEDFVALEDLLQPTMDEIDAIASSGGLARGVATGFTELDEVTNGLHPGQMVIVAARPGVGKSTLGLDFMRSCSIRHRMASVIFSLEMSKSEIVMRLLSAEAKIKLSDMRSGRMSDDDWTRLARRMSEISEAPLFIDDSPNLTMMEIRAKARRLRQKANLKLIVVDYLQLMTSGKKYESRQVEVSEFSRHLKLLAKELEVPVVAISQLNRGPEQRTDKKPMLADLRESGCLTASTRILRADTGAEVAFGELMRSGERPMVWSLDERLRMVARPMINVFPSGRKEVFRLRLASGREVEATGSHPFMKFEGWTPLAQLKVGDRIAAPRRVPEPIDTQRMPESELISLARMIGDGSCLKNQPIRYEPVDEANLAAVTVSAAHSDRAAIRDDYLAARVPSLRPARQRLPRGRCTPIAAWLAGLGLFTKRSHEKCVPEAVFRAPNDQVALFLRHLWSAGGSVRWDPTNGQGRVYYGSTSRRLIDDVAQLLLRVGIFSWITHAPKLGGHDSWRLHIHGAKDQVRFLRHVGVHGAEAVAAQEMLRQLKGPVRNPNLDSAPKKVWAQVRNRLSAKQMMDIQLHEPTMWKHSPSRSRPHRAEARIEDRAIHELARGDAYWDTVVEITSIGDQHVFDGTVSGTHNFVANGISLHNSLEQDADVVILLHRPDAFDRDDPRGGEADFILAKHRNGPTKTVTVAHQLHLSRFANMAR

HT-1080 = test: cytotoxicity in HT1080 fibrosarcoma cells, cell-based, fluorescence readout (AID 620); assay type: functional; conditions: Homo sapiens
Beta-galactosidase = Beta-galactosidase (Escherichia coli, UniProt Q8VNN2); test: beta-galactosidase enzyme inhibitors and activators, dose response, artefact control for CCR6 antagonist project, biochemical, E. coli enzyme, set 3 (AID 504712); assay type: functional
Protein RecA = biological target: T3, Protein RecA (Mycobacterium tuberculosis, UniProt P9WHJ3); test: Fluorescence Cell-Free Homogeneous Dose Retest to Identify Inhibitors of RecA-Intein Splicing Activity. [Related pubchem assays (depositor defined):AID2097, AID2223, AID489010, AID492950]; assay type: functional
T3 sequence (P9WHJ3 whole entry): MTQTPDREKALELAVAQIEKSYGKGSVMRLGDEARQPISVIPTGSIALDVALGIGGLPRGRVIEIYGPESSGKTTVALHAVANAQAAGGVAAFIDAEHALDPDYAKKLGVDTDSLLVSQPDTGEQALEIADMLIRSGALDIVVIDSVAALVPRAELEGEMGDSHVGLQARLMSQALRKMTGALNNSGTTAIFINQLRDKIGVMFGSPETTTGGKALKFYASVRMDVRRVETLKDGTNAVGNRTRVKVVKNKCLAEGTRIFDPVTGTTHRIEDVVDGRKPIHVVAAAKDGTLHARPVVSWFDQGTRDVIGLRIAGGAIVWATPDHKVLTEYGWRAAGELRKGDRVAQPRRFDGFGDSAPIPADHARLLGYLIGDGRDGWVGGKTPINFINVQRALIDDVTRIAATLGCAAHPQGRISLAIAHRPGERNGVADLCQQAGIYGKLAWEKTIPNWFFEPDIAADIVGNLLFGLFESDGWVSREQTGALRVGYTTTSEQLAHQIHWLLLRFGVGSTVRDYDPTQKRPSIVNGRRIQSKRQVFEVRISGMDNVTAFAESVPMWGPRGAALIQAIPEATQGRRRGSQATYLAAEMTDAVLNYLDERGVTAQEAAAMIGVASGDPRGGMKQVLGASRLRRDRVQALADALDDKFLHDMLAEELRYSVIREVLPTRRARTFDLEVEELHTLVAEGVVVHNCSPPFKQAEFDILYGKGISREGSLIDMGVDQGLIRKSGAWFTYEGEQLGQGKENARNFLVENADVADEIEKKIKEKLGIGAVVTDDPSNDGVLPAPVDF

Protein Tat = biological target: T4, Protein Tat (Human immunodeficiency virus type 1 group M subtype B (isolate HXB2)(HIV-1), UniProt P04608); assay type: functional;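 further: tat binding to TAR RNA read out by fluorescence polarization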
T4 sequence (P04608 whole entry): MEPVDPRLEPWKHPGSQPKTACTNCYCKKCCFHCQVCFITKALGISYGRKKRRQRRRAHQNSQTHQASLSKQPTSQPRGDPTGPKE

[7] = biological target: C-C chemokine receptor type 6 (Homo sapiens, UniProt P51684); test: CCR6 receptor antagonists, dose response, cell-based, luminescent beta-arrestin readout (AID 504728); assay type: functional
Hexokinase HKDC1 = biological target: T5, Hexokinase HKDC1 (Homo sapiens, UniProt Q2TB90); test: HKDC1 hexokinase inhibitors, dose response, biochemical, W721R variant (AID 504729); assay type: functional
T5 sequence (Q2TB90 whole entry): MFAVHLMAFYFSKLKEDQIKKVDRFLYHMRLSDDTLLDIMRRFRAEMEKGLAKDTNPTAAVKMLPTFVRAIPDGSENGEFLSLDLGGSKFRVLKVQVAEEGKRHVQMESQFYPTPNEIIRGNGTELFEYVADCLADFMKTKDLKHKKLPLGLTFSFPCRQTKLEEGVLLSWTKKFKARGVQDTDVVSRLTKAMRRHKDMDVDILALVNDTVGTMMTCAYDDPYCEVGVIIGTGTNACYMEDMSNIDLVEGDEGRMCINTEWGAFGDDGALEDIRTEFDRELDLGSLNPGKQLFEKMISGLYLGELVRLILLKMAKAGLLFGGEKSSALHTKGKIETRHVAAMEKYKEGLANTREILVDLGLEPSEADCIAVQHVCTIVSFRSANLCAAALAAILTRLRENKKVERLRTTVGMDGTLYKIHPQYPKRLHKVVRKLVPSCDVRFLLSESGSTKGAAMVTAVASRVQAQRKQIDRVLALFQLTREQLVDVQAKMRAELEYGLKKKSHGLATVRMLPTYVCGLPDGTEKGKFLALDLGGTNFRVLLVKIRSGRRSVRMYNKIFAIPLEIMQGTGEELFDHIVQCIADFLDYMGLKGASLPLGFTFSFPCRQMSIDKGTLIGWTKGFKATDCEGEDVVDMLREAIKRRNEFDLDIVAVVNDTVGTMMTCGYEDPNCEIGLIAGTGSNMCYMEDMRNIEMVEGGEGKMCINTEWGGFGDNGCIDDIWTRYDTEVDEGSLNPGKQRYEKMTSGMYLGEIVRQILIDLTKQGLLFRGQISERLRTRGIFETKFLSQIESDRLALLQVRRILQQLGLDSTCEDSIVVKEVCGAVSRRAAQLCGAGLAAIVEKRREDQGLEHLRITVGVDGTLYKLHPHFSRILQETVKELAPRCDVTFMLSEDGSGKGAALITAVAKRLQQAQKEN

[8] = biological target: Luciferin 4-monooxygenase (Photinus pyralis, UniProt P08659); test: Counter Screen for Luciferase-based Assay Positives. [Related pubchem assays: 620, 618, 411 ]
[9] = growth suppression of PTEN-null colon cells, dose response, cell-based, HCT116 PTEN knockout (AID 1047); assay type: functional;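 further: HCT116 colon tumor cells with PTEN knocked out; cells exposed to compound for 60 hours before readout; potency for loss of cell viability measured by luminescence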
HeLa = test: HeLa cell cytotoxicity, dose response, cytotoxicity control for MITF activator project, CellTiter-Glo luminescence, cherry-pick samples (AID 540259); assay type: functional, cell-based; conditions: Homo sapiens

T1 sequence (P65502 whole entry): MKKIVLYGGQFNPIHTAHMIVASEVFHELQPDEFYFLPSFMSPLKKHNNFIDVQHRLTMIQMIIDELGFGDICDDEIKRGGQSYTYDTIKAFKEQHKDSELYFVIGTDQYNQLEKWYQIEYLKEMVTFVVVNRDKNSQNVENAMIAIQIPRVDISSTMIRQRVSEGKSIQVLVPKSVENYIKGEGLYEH
Beta-arrestin-1, sequence (P49407 whole entry): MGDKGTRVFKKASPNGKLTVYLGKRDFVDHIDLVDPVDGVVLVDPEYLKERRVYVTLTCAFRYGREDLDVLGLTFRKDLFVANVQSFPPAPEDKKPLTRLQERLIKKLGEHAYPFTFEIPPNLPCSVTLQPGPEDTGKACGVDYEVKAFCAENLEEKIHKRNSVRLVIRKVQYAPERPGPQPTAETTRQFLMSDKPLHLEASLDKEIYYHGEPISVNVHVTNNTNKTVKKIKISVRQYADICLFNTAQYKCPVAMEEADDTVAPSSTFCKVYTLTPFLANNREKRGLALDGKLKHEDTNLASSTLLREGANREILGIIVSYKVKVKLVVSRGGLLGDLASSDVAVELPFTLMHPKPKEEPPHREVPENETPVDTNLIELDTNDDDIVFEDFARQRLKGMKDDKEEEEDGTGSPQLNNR
Beta-galactosidase, sequence (Q8VNN2 whole entry): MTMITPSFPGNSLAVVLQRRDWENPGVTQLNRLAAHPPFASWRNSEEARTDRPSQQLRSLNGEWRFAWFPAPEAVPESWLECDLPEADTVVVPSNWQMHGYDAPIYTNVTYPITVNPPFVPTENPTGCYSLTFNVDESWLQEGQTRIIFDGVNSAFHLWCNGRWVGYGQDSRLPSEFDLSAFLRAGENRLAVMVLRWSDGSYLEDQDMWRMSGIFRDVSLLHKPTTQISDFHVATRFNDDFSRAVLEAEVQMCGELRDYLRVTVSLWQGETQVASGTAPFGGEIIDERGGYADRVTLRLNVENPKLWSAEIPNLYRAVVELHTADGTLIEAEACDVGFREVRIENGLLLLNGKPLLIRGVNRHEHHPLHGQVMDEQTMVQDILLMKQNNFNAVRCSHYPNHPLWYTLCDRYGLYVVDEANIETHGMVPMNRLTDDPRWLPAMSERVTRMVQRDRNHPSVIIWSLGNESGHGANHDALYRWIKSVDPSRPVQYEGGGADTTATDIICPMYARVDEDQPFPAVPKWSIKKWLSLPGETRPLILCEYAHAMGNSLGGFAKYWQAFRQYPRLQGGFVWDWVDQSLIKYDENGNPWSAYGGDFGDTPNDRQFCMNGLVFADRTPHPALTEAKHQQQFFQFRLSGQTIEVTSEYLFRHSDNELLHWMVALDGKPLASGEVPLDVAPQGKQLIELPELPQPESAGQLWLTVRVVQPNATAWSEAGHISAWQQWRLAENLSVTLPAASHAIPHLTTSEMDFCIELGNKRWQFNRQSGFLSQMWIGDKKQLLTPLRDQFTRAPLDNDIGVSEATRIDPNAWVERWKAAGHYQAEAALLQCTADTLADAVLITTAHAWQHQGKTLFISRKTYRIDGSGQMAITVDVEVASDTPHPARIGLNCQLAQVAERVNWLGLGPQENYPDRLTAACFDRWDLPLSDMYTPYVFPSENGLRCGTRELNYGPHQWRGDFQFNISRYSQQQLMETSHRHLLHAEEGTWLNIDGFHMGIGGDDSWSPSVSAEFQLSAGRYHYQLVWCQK
C-C chemokine receptor type 6, sequence (P51684 whole entry): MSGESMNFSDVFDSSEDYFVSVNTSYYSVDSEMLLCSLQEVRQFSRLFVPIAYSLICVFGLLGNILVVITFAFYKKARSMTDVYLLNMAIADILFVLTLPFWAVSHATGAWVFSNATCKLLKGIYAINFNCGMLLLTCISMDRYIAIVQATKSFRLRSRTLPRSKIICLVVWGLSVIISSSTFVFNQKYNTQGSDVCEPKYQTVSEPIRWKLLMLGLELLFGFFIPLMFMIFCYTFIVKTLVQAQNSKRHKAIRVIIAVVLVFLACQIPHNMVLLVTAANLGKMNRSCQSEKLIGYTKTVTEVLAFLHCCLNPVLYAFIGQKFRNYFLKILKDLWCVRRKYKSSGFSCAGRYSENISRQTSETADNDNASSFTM
Eukaryotic translation initiation factor 4E, sequence (P63073 whole entry): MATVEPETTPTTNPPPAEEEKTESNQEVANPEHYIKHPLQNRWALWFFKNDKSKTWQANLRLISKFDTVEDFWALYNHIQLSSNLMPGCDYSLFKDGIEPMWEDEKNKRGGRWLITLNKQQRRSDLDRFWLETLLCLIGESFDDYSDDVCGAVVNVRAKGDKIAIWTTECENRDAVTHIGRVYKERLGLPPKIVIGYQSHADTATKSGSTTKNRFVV
E3 ubiquitin-protein ligase Mdm2, sequence (Q00987 whole entry): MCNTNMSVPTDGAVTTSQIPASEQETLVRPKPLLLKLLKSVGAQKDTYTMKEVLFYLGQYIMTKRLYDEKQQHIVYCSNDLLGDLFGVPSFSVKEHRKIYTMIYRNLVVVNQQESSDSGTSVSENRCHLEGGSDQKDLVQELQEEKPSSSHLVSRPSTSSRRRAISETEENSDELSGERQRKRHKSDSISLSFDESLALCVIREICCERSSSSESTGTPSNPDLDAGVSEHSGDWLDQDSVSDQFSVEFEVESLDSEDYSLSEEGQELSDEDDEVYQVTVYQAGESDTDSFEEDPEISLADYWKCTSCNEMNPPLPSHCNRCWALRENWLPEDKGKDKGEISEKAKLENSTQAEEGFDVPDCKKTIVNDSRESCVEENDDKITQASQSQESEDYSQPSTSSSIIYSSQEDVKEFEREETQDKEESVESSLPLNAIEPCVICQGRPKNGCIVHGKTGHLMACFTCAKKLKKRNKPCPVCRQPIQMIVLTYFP
DNA topoisomerase, sequence (A0A2S9PM60 whole entry): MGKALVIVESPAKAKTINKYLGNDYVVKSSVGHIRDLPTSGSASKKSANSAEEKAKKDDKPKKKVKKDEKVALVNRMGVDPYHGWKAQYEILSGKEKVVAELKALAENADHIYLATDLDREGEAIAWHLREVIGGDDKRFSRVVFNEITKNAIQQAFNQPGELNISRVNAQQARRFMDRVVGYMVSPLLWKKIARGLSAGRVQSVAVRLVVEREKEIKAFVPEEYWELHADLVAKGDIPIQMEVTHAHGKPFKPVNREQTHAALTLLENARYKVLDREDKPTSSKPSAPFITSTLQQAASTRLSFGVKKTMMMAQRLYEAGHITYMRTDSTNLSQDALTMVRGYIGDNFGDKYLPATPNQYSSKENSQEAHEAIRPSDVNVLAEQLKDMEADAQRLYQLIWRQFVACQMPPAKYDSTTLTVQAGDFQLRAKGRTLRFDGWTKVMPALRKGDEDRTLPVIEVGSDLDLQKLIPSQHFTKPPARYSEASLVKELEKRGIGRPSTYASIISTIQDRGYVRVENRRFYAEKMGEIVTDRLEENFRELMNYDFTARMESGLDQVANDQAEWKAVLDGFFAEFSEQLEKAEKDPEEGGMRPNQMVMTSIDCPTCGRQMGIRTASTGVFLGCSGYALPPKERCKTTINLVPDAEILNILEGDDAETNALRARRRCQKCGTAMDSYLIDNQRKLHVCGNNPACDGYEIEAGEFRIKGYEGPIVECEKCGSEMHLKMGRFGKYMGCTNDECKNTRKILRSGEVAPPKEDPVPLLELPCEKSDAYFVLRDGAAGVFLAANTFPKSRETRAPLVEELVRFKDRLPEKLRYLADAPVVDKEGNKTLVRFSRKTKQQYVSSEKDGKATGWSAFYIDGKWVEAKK
Luciferin 4-monooxygenase, sequence (P08659 whole entry): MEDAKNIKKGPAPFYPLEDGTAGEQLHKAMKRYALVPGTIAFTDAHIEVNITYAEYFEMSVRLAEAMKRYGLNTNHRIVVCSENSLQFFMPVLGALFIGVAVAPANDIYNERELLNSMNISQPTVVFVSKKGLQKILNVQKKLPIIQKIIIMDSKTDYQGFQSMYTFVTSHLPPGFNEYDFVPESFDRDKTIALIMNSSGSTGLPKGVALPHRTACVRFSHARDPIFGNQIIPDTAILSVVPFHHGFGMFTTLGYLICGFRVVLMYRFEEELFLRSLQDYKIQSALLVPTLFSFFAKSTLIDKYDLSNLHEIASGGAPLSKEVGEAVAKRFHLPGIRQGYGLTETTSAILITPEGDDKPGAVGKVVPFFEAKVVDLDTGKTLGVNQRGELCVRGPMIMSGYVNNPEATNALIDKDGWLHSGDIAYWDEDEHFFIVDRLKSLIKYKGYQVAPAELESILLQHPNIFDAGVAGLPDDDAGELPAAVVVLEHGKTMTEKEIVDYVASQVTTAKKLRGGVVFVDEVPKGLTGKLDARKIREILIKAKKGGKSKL
Nonstructural protein 1, sequence (Q194T2 whole entry): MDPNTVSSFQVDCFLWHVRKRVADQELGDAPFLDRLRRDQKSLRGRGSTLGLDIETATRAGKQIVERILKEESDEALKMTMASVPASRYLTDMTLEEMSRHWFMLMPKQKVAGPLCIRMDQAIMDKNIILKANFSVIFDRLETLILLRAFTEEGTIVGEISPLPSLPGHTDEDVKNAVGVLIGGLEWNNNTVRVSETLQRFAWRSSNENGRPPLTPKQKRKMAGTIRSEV

O=C(Nc1ccn(CCCN(CCCn2ccc(NC(=O)OCc3ccccc3)nc2=O)CCc2cc3ccccc3[nH]2)c(=O)n1)OCc1ccccc1
IC50 [1]: 40.7 µM (active)
IC50 [2]: 15.9 µM (active)
AC50 (DNA topoisomerase): 2.54 µM (active)

O=C1C(Cl)=C(N2CCCCC2)C(=O)C(Cl)=C1c1cnc(N2CCCCC2)s1
EC50 [3]: 2.42 µM (active)
IC50 (Nonstructural protein 1): 21.4 µM (active)
IC50 [4]: > 64 µM (inactive)
IC50 (Beta-arrestin-1): 14.1 µM (active)
EC50 [5]: 2.75 µM (active)
AC50 [6]: > 380 µM (inactive)
EC50 (HT-1080): 45.9 µM (active)
IC50 (Beta-galactosidase): > 66.6 µM (inactive)
EC50 (Protein RecA): 0.766 µM (active)
IC50 (Protein Tat): 1.99 µM (inconclusive)
IC50 [7]: > 66.6 µM (inactive)
IC50 (Hexokinase HKDC1): 11.4 µM (active)
EC50 [8]: 4.4 µM (active)
EC50 [9]: 3.45 µM (active)

Cc1ccn2c(C(=O)c3ccc(Cl)cc3)cnc2c1
AC50 (HeLa): 37 µM (active)
